Laboratory results published in US6781033B2, “Method for the transformation of plant cell plastids” (Monsanto Technology LLC, priority 2000, dated 2004).

Tests used:
[1] = tested on: wild-type plant cell plastids of tobacco leaf tissue; assay: Electron microscopic analysis of plastid ultrastructure in tobacco leaf tissue cultured on drug-containing medium; assay type: cell-based, Nicotiana tabacum cv Petit Havana
Description: (§1) Wild-type plants of Nicotiana tabacum cv Petit Havana were propagated in sterile hormone free MS medium (Murashige and Skoog (1962) Physiol. Plant. 15,473-497) supplemented with B5 vitamins in Phytatrays or sundae cups with a 16-hour photoperiod at 24° C. Leaf sections were aseptically removed and placed into new plant regeneration medium containing various concentrations of glyphosate, spectinomycin and phospinothricin. The leaf material was collected at 1-week and 4-week time points and prepared for electron microscopic observation of plastid ultrastructure. As a control, wild-type leaf sections were exposed to the initially plastid non-lethal antibiotic, spectinomycin, under identical conditions, or to medium without any drug.
Cultured tobacco leaf pieces 1 mm^2 were fixed in 4% glutaraldehyde in 0.1 M sodium cacodylate buffer, pH 7.2 for 3 hours, with the first 30 minutes under vacuum. The tissue was further fixed in 1% osmium tetroxide in the above buffer for 90 minutes and stained with 1% aqueous uranyl acetate for 2 hours. Ethanol and propylene oxide were used to dehydrate the tissue prior to infiltration with a 1:1 mixture of Spurr's:EMbed 812 resin. The resin was polymerized at 60° C. for 48 hours. The resulting blocks were sectioned on a Leica Ultracut E microtome. Sections 80 nm thick were picked up on formvar/carbon-coated copper slot grids. The grids were stained with uranyl acetate and lead citrate in a LKB Ultrastainer and examined with a JEOL 1200 transmission electron microscope. All reagents were obtained from Electron Microscopy Sciences, Fort Washington, Pa.
Tobacco leaf tissue was also analyzed on medium containing lower concentrations of glyphosate. […] Cultured tissue was prepared for electron microscopy as described above.
To test the general effect of herbicides on plastid morphology, we examined tobacco leaf cultures that were grown in the presence of phosphinothricin (PPT, active ingredient in BASTA herbicide) at 4 mg/L, the concentration normally used for nuclear transformation. Leaves from healthy, tobacco plants at the same developmental stage were cut into about 5 mm×5 mm sections and placed on MS/B5 medium with 3% sucrose, 1 mg/L BAP, 0.1 mg/L NAA and 4 mg/L phosphinothricin for the 3, 7 or 12 days. The leaf sections were then fixed and processed for TEM analysis.

[2] = tested on: tobacco leaf plant cultures; assay: Visual appearance of tobacco leaf cultures on drug-containing medium; assay type: cell-based, Nicotiana tabacum cv Petit Havana
Description: as §1

[3] = tested on: bombarded tobacco leaf explants; assay: Direct selection of bombarded tobacco leaf explants on lethal level of PPT; assay type: cell-based, Nicotiana tabacum cv. Havana; settings: 4 mg/L PPT, leaves bombarded with pMON53159
Description: Dark green, round leaves are cut, preferably from the middle of the shoots, from 3-6 week old Nicotiana tabacum cv. Havana that have been maintained in vitro on hormone-free MS medium (Murashige and Skoog, (1962) Physiol Plant. 15, 473-497) supplemented with B5 vitamins in Phytatrays or sundae cups with a 16-hour photoperiod at 24° C. Each cut leaf is then placed adaxial side up on sterile filter paper over tobacco shoot regeneration medium (TSO medium: MS salts, 1 mg/L N^6-benzyladenine, 0.1 mg/L 1-naphthaleneacetic acid, 1 mg/L thiamine, 100 mg/L inositol, 7 g/L agar pH 5.8 and 30 g/L sucrose). Leaves are preferably placed in the center of the plate with as much contact with the medium as possible. The plates are preferably prepared immediately prior to use but may be prepared up to a day before transformation by particle bombardment by wrapping in plastic bags and storing at 24° C. overnight.
Plates containing the leaf samples are placed on the second shelf from the bottom of the vacuum chamber and bombarded using the 1100 p.s.i. rupture disk. After bombardment, petri plates containing the leaf samples are wrapped in plastic bags and incubated at 24° C. for 48 hours as a delay period prior to phase one culturing.
Direct selection of phosphinothricin (PPT) resistant transformants on lethal levels of PPT using plasmid pMON53159 carrying the bar gene alone were unsuccessful. […]

| Compound | plastid ultrastructure (TEM) ([1]; 500 mg/L spectinomycin, four weeks) | plastid ultrastructure (TEM) ([1]; 500 mg/L spectinomycin, one week) | visual effect on plant cultures ([2]; after 1 week) | visual effect on plant cultures ([2]; after 4 weeks, spectinomycin) | plastoglobuli diameter ([1]; 1 μM glyphosate, 7 days) | plastid ultrastructure (TEM) ([1]; 1 μM glyphosate, 7 days, TSO medium) | plastid ultrastructure (TEM) ([1]; 5 μM glyphosate, 7 days) | plastid ultrastructure (TEM) ([1]; 10 μM glyphosate, 7 days) | plastid ultrastructure (TEM) ([1]; 20 μM glyphosate, 3 days) | plastid ultrastructure (TEM) ([1]; 20 μM glyphosate, 7 days) | plastid ultrastructure (TEM) ([1]; 50 μM glyphosate, four weeks) | plastid ultrastructure (TEM) ([1]; 50 μM glyphosate, one week) | plastid ultrastructure (TEM) ([1]; 200 μM glyphosate, four weeks) | plastid ultrastructure (TEM) ([1]; 200 μM glyphosate, one week) | visual effect on plant cultures ([2]; after 4 weeks, lower concentrations of glyphosate) | plastid ultrastructure (TEM) ([1]; 4 mg/L phosphinothricin, 3 days) | plastid ultrastructure (TEM) ([1]; 4 mg/L phosphinothricin, 7 days) | plastid ultrastructure (TEM) ([1]; 4 mg/L phosphinothricin, 12 days) | appearance of explants under direct selection [3] |
| --- | --- | --- | --- | --- | --- | --- | --- | --- | --- | --- | --- | --- | --- | --- | --- | --- | --- | --- | --- |
| CN[C@@H]1[C@H](O)[C@H](NC)[C@H]2O[C@@]3(O)C(=O)C[C@@H](C)O[C@H]3O[C@@H]2[C@H]1O [spectinomycin] | plastids internal membranes have broken down almost completely and become vacuolated | plastids look relatively normal | minimal effect on plant cultures visually | tissue is completely bleached | – | – | – | – | – | – | – | – | – | – | – | – | – | – | – |
| O=C(O)CNCP(=O)(O)O [glyphosate] | – | – | minimal effect visually on plant cultures | – | approximately 0.25 μm | typical morphology of metabolically active photosynthetic plastids | normal in appearance | normal in appearance | chloroplasts are beginning to show morphological damage | thylakoid membrane system is severely damaged | plastids appear to have recovered or adapted to some degree | reticulate network of thylakoid membranes has disappeared | completely devoid of internal structure | damage to plastid structure is occurring rapidly | begin to form shoot primordia indicating recovery of the tissue | – | – | – | – |
| CP(=O)(O)CC[C@H](N)C(=O)O [PPT, phosphinothricin] | – | – | – | – | – | – | – | – | – | – | – | – | – | – | – | Thylakoid membranes are completely absent | even more dramatic, with oil bodies accumulated in the organelles | even more dramatic, with oil bodies accumulated in the organelles | bleached and demonstrated little or no cell expansion |
